Measurements from patent publication US11958887B2, “Gene therapy for tuberous sclerosis” (The General Hospital Corporation, priority 2017, dated 2024).

System: Tsc2^c/c mice injected ICV with AAV1-CBA-Cre
Assay: Survival of Tsc2^c/c mice lacking tuberin (AAV1-CBA-Cre ICV) after treatment
Type: in vivo
Conditions: AAV1-CBA-Cre ICV at P0; no cTuberin vector; vigabatrin 200 mg/kg
Protocol: Experimental research protocols were approved by the Institutional Animal Care and Use Committee (IACUC) for the Massachusetts General Hospital (MGH) following the guidelines of the National Institutes of Health for the Care and Use of Laboratory Animals. Experiments were performed on Tsc2^c/c floxed mice (Onda et al., J. Clin. Invest. 104(6):687-695, 1999). In response to Cre recombinase, the Tsc2^c/c alleles are converted to null alleles, and the lacZallele expresses β-galactosidase. These mice have a normal, healthy lifespan.
For vector injections, on the day of birth (postnatal day 0 (P0)) or on P3, neonates were cryo-anesthetized and injected with 1 μl or 2 μl of viral vector AAV1-CBA-Cre into each cerebral lateral ventricle with a glass micropipette ([…] diameter at the tip) using a Narishige® IM300 microinjector at a rate of 2.4 psi/sec (Narshige International, East Meadow, NY). Mice were then placed on a warming pad and returned to their mothers after regaining normal color and full activity typical of newborn mice.
At 3 weeks of age (P21) mice were anesthetized by isoflurane inhalation (3.5% isoflurane in an induction chamber, then maintained anesthetized with 2-3% isoflurane and 1-2 liter/min oxygen for the duration of the experiment). […]

In the case of `C=CC(N)CCC(=O)O` (stereo not shown) [vigabatrin], the median survival is reported as 27 days.
